This is an account of results in patent publication EP2465581B1, “Non-therapeutic use of a composition for promoting hair growth” (Energenesis Biomedical Co., Ltd., priority 2010, dated 2012).

For this experiment, the system named is human dermal papilla cells. Description: Human dermal papilla cell proliferation test. It is filed as cell-based. The note with it: 0.002% in culture media; cell count at 12-60 hour; FIG. 1; result in words. As for the experimental part:
The promotion of cell proliferation by adenine was evaluated using human dermal papilla cells, compared with adenosine, and minoxidil under the following conditions, the results are shown in FIG. 1. Determination of the proliferation of human dermal papilla cells in the culture media containing adenine, adenosine, and minoxidil. Supplements: 0.002% of adenine, adenosine, minoxidil. • (1) Prepare 0.002% adenine, adenosine, minoxidil containing testing media using the hair follicle dermal papilla cell media (cat. No. 611-500, Cell applications, Inc) . • (2) Seed the isolated human dermal papilla cells in 96-well culture plate with a density of 5,000 cells per well. Add 0.1 mL prepared culture media into individual well. • (3) At 12, 24, 36, 48 and 60 hour after cell seeding, visually count the total cell number using hemacytometer. • (4) Evaluate the result.

On to `Nc1ncnc2nc[nH]c12` [adenine], for which the “proliferation of human dermal papilla cells” value is recorded as “promotes the proliferation”.
